# How the values were obtained:
# MDA-MB-435 = test: NCI 60 cell-line screen, MDA-MB-435 (Breast); format: cell-based, human; conditions: averaged, quadruplicate testing, 48 h, SRB
# Protocol: (§1) The NCI screen consists of a panel of 60 different human tumor cell lines against which compounds are tested over a defined range of concentrations to determine the relative degree of growth inhibition or cytotoxicity against each cell line. The design and operation of the screen is such that for each compound tested, both the absolute and relative sensitivities of individual cell lines comprising the screen are sufficiently reproducible that a characteristic profile or “fingerprint” of cellular response is generated. Compounds which are active in the NCI screen show pronounced differential tumor growth-inhibitory and/or cytotoxic effects to the diverse cell lines comprising the 60 cell-line panel. The degree of differential response between the most and least sensitive lines typically may be relatively small (e.g., 2- to 10-fold), or occasionally as great as 3-4 orders of magnitude. […]
# (§2) In the screening assay, each agent is tested over a broad concentration range against every cell line in the panel. […] Test compounds are evaluated at five 10-fold dilutions. […] Optical densities are measured on automated plate readers, followed by computerized data acquisition, processing, storage, and availability for display and analysis. […]
# EKVX = test: NCI 60 cell-line screen, EKVX (Lung); format: cell-based, human; conditions: averaged, quadruplicate testing, 48 h, SRB
# Protocol: as §1, §2
# HCT-15 = test: NCI 60 cell-line screen, HCT-15 (Colon); format: cell-based, human; conditions: averaged, quadruplicate testing, 48 h, SRB
# Protocol: as §1, §2
# MALME-3M = test: NCI 60 cell-line screen, MALME-3M (Melanoma); format: cell-based, human; conditions: averaged, quadruplicate testing, 48 h, SRB
# Protocol: as §1, §2
# T-47D = test: NCI 60 cell-line screen, T-47D (Breast); format: cell-based, human; conditions: averaged, quadruplicate testing, 48 h, SRB
# Protocol: as §1, §2
# DU-145 = test: NCI 60 cell-line screen, DU-145 (Prostate); format: cell-based, human; conditions: averaged, quadruplicate testing, 48 h, SRB
# Protocol: as §1, §2
# HOP-92 = test: NCI 60 cell-line screen, HOP-92 (Lung); format: cell-based, human; conditions: averaged, quadruplicate testing, 48 h, SRB
# Protocol: as §1, §2
# SF-268 = test: NCI 60 cell-line screen, SF-268 (Brain); format: cell-based, human; conditions: averaged, quadruplicate testing, 48 h, SRB
# Protocol: as §1, §2
# MDA-MB-231/ATCC = test: NCI 60 cell-line screen, MDA-MB-231/ATCC (Breast); format: cell-based, human; conditions: averaged, quadruplicate testing, 48 h, SRB
# Protocol: as §1, §2
# SF-295 = test: NCI 60 cell-line screen, SF-295 (Brain); format: cell-based, human; conditions: averaged, quadruplicate testing, 48 h, SRB
# Protocol: as §1, §2
# A498 = test: NCI 60 cell-line screen, A498 (Kidney); format: cell-based, human; conditions: averaged, quadruplicate testing, 48 h, SRB
# Protocol: as §1, §2
# UO-31 = test: NCI 60 cell-line screen, UO-31 (Kidney); format: cell-based, human; conditions: averaged, quadruplicate testing, 48 h, SRB
# Protocol: as §1, §2
# COLO 205 = test: NCI 60 cell-line screen, COLO 205 (Colon); format: cell-based, human; conditions: averaged, quadruplicate testing, 48 h, SRB
# Protocol: as §1, §2
# SN-12C = test: NCI 60 cell-line screen, SN-12C (Kidney); format: cell-based, human; conditions: averaged, quadruplicate testing, 48 h, SRB
# Protocol: as §1, §2
# [1] = Stability of compounds and extracts in solvents and media; format: physicochemical
# Description: Therefore, all subsequent attempts at isolation avoided the use of chloroform or exposure of samples to CDCl3, and no further problems with decomposition or loss of bioactivity were encountered. Moreover, there was no indication of any instability of the pure isolated compounds in any of the other common organic solvents employed, nor in aqueous or biological media. Therefore, a typical isolation and purification of the salicylihalamides from the selected crude extract is as follows.
# RPMI-8226 = test: NCI 60 cell-line screen, RPMI-8226 (Leukemia); format: cell-based, human; conditions: averaged, quadruplicate testing, 48 h, SRB
# Protocol: as §1, §2
# IGROVI = test: NCI 60 cell-line screen, IGROVI (Ovary); format: cell-based, human; conditions: averaged, quadruplicate testing, 48 h, SRB
# Protocol: as §1, §2
# ACHN = test: NCI 60 cell-line screen, ACHN (Kidney); format: cell-based, human; conditions: averaged, quadruplicate testing, 48 h, SRB
# Protocol: as §1, §2
# OVCAR-4 = test: NCI 60 cell-line screen, OVCAR-4 (Ovary); format: cell-based, human; conditions: averaged, quadruplicate testing, 48 h, SRB
# Protocol: as §1, §2
# U251 = test: NCI 60 cell-line screen, U251 (Brain); format: cell-based, human; conditions: averaged, quadruplicate testing, 48 h, SRB
# Protocol: as §1, §2
# TK-10 = test: NCI 60 cell-line screen, TK-10 (Kidney); format: cell-based, human; conditions: averaged, quadruplicate testing, 48 h, SRB
# Protocol: as §1, §2
# HCC-2998 = test: NCI 60 cell-line screen, HCC-2998 (Colon); format: cell-based, human; conditions: averaged, quadruplicate testing, 48 h, SRB
# Protocol: as §1, §2
# MCF-7-ADR-RES = test: NCI 60 cell-line screen, MCF-7-ADR-RES (Breast); format: cell-based, human; conditions: averaged, quadruplicate testing, 48 h, SRB
# Protocol: as §1, §2
# NCI-H522 = test: NCI 60 cell-line screen, NCI-H522 (Lung); format: cell-based, human; conditions: averaged, quadruplicate testing, 48 h, SRB
# Protocol: as §1, §2
# CAKI-1 = test: NCI 60 cell-line screen, CAKI-1 (Kidney); format: cell-based, human; conditions: averaged, quadruplicate testing, 48 h, SRB
# Protocol: as §1, §2
# NCI-H226 = test: NCI 60 cell-line screen, NCI-H226 (Lung); format: cell-based, human; conditions: averaged, quadruplicate testing, 48 h, SRB
# Protocol: as §1, §2
# M14 = test: NCI 60 cell-line screen, M14 (Melanoma); format: cell-based, human; conditions: averaged, quadruplicate testing, 48 h, SRB
# Protocol: as §1, §2
# NCI-H23 = test: NCI 60 cell-line screen, NCI-H23 (Lung); format: cell-based, human; conditions: averaged, quadruplicate testing, 48 h, SRB
# Protocol: as §1, §2
# PC-3 = test: NCI 60 cell-line screen, PC-3 (Prostate); format: cell-based, human; conditions: averaged, quadruplicate testing, 48 h, SRB
# Protocol: as §1, §2
# OVCAR-3 = test: NCI 60 cell-line screen, OVCAR-3 (Ovary); format: cell-based, human; conditions: averaged, quadruplicate testing, 48 h, SRB
# Protocol: as §1, §2
# MOLT-4 = test: NCI 60 cell-line screen, MOLT-4 (Leukemia); format: cell-based, human; conditions: averaged, quadruplicate testing, 48 h, SRB
# Protocol: as §1, §2
substance,measurement,setting,value
salicylihalamide A,negative log10 GI50,MDA-MB-435,7.82
same,negative log10 GI50,EKVX,7.52
same,negative log10 GI50,HCT-15,8.44
same,negative log10 GI50,MALME-3M,7.62
same,negative log10 GI50,T-47D,8.34
same,negative log10 GI50,DU-145,8.26
same,negative log10 GI50,HOP-92,7.77
same,negative log10 GI50,SF-268,7.55
same,negative log10 GI50,MDA-MB-231/ATCC,6.92
same,negative log10 GI50,SF-295,8.96
same,negative log10 GI50,A498,6.55
same,negative log10 GI50,UO-31,8.31
same,negative log10 GI50,COLO 205,8.07
same,negative log10 GI50,SN-12C,7.77
same,stability in deuterated chloroform (CDCl3),[1],sensitivity
same,negative log10 GI50,RPMI-8226,7.89
same,negative log10 GI50,IGROVI,7.89
same,negative log10 GI50,ACHN,8.01
same,negative log10 GI50,OVCAR-4,5.30
same,negative log10 GI50,U251,7.57
same,negative log10 GI50,TK-10,5.74
same,negative log10 GI50,HCC-2998,6.74
same,negative log10 GI50,MCF-7-ADR-RES,8.07
same,negative log10 GI50,NCI-H522,7.26
same,negative log10 GI50,CAKI-1,8.96
same,negative log10 GI50,NCI-H226,8.80
same,negative log10 GI50,M14,8.92
same,negative log10 GI50,NCI-H23,6.55
same,negative log10 GI50,PC-3,7.51
same,negative log10 GI50,OVCAR-3,7.03
same,negative log10 GI50,MOLT-4,7.96
